Measurements reported in ChEMBL document CHEMBL1201862, “PubChem BioAssay data set” (2004).
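How tested: cells in 96-well plates exposed to compound for 48 hours at five concentrations. GI50: concentration for 50% inhibition of growth.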 Active and inactive are the calls of the source. No stated cut-off is given here; in the data, active = GI50 up to about 1.1 µM and inactive = higher.

Columns and labels:
Assay in all cases: DTP human tumour cell line panel, 48 h
[1] = test system: UO-31
[2] = test system: HCT-116
[3] = test system: K562
[4] = test system: SW-620
[5] = test system: UACC-62
[6] = test system: HCC 2998
[7] = test system: MOLT-4
[8] = test system: HT-29
[9] = test system: SK-MEL-2
[10] = test system: CCRF-CEM
[11] = test system: NCI-H460
[12] = test system: NCI-H23
[13] = test system: HOP-18
[14] = test system: HCT-15
[15] = test system: M14
[16] = test system: IGROV-1
[17] = test system: NCI-H226
[18] = test system: KM-20L2
[19] = test system: CAKI-1

SMILES | GI50 [1] | GI50 [2] | GI50 [3] | GI50 [4] | GI50 [5] | GI50 [6] | GI50 [7] | GI50 [8] | GI50 [9] | GI50 [10] | GI50 [11] | GI50 [12] | GI50 [13] | GI50 [14] | GI50 [15] | GI50 [16] | GI50 [17] | GI50 [18] | GI50 [19]
COc1ccc(S(=O)(=O)c2ccccc2[N+](=O)[O-])cc1 | 78 µM (inactive) | > 100 µM (inactive) | > 100 µM (inactive) | > 100 µM (inactive) | > 100 µM (inactive) | > 100 µM (inactive) | 92.3 µM (inactive) | > 100 µM (inactive) | > 100 µM (inactive) | > 100 µM (inactive) | > 100 µM (inactive) | 98.9 µM (inactive) | > 100 µM (inactive) | > 100 µM | > 100 µM (inactive) | > 100 µM (inactive) | > 100 µM (inactive) | > 100 µM (inactive) | –
Cc1c(C2=NN=C(/N=N/c3c(O)cccc3O)/C2=C/c2ccccc2)c(=O)n(-c2ccccc2)n1C | > 100 µM (inactive) | > 100 µM (inactive) | > 100 µM (inactive) | > 100 µM (inactive) | > 100 µM (inactive) | > 100 µM (inactive) | > 100 µM (inactive) | > 100 µM (inactive) | > 100 µM (inactive) | > 100 µM (inactive) | > 100 µM (inactive) | > 100 µM (inactive) | > 100 µM (inactive) | > 100 µM | – | > 100 µM (inactive) | > 100 µM (inactive) | > 100 µM (inactive) | > 100 µM (inactive)
Cc1ccc(Oc2ccc(C)cc2[N+](=O)[O-])cc1 | 29.2 µM (inactive) | 53.6 µM (inactive) | 38.5 µM (inactive) | > 100 µM (inactive) | > 100 µM (inactive) | > 100 µM (inactive) | 37.4 µM (inactive) | 40.7 µM (inactive) | > 100 µM (inactive) | 36.7 µM (inactive) | 90.8 µM (inactive) | 31.5 µM (inactive) | > 100 µM (inactive) | 63.8 µM | 96.6 µM (inactive) | > 100 µM (inactive) | 57.5 µM (inactive) | > 100 µM (inactive) | –
Cc1ccc(/C=C/C(=O)c2ccc([N+](=O)[O-])cc2)cc1 | 59.4 µM (inactive) | > 100 µM (inactive) | > 100 µM (inactive) | > 100 µM (inactive) | > 100 µM (inactive) | > 100 µM (inactive) | > 100 µM (inactive) | > 100 µM (inactive) | > 100 µM (inactive) | > 100 µM (inactive) | > 100 µM (inactive) | 30.9 µM (inactive) | > 100 µM (inactive) | > 100 µM | > 100 µM (inactive) | > 100 µM (inactive) | > 100 µM (inactive) | > 100 µM (inactive) | > 100 µM (inactive)
CN(C)CCNc1c([N+](=O)[O-])cc2c3c(cccc13)C(=O)N(CCN(C)C)C2=O | 1.58 µM (inactive) | 0.552 µM (active) | 0.556 µM (active) | 0.593 µM (active) | 1.75 µM (inactive) | 1.53 µM (inactive) | 0.476 µM (active) | 0.61 µM (active) | 1.77 µM (inactive) | 0.893 µM (active) | 0.653 µM (active) | 1.78 µM (inactive) | 1.52 µM (inactive) | 1.7 µM | – | 1.73 µM (inactive) | > 100 µM (inactive) | 1.21 µM (inactive) | 2.13 µM (inactive)
O=[N+]([O-])c1ccc(Nc2cccc3c4cc[nH]c(-c5ccccc5)c-4nc23)c([N+](=O)[O-])c1 | > 100 µM (inactive) | > 100 µM (inactive) | 36.1 µM (inactive) | > 100 µM (inactive) | 93.5 µM (inactive) | > 100 µM (inactive) | 5.82 µM (inactive) | > 100 µM (inactive) | > 100 µM (inactive) | 41.4 µM (inactive) | > 100 µM (inactive) | > 100 µM (inactive) | > 100 µM (inactive) | > 100 µM | – | > 100 µM (inactive) | > 100 µM (inactive) | > 100 µM (inactive) | –
CCOC(=O)Nc1ccc(S(=O)(=O)OC)cc1.CCOC(=O)Nc1ccc(S(=O)(=O)OC)cc1.NC(=O)NCCO | > 50 µM (inactive) | 21.3 µM (inactive) | 16.1 µM (inactive) | 28.8 µM (inactive) | > 50 µM (inactive) | > 50 µM (inactive) | > 50 µM (inactive) | 31.8 µM (inactive) | > 50 µM (inactive) | 23.3 µM (inactive) | 22.1 µM (inactive) | > 50 µM (inactive) | 49.4 µM (inactive) | 21.6 µM | 42.4 µM (inactive) | > 50 µM (inactive) | > 50 µM (inactive) | > 50 µM (inactive) | 48.6 µM (inactive)
C=CCNC(=O)C(C)C1CCC2(C)C=CC(=O)C(C)=C2C1O (centres undefined) | > 100 µM (inactive) | > 100 µM (inactive) | > 100 µM (inactive) | > 100 µM (inactive) | > 100 µM (inactive) | > 100 µM (inactive) | > 100 µM (inactive) | > 100 µM (inactive) | > 100 µM (inactive) | > 100 µM (inactive) | > 100 µM (inactive) | > 100 µM (inactive) | > 100 µM (inactive) | > 100 µM | – | > 100 µM (inactive) | > 100 µM (inactive) | > 100 µM (inactive) | > 100 µM (inactive)
COC(=O)C1CC2(c3ccccc3)C(=O)c3ccccc3N2O1 (centres undefined) | – | 46.9 µM (inactive) | 31.8 µM (inactive) | 39.3 µM (inactive) | 34 µM (inactive) | > 100 µM (inactive) | 22.1 µM (inactive) | 33.3 µM (inactive) | 39.3 µM (inactive) | 30.3 µM (inactive) | 47.3 µM (inactive) | > 100 µM (inactive) | > 100 µM (inactive) | 43.1 µM | > 100 µM (inactive) | > 100 µM (inactive) | > 100 µM (inactive) | > 100 µM (inactive) | 36.5 µM (inactive)
COc1ccc(C(=O)C(C(=O)C(=O)NCCCNC(=O)C(=O)C(C(=O)c2ccc(OC)cc2)c2ccc(OC)cc2)c2ccc(OC)cc2)cc1 (centres undefined) | > 100 µM (inactive) | > 100 µM (inactive) | > 100 µM (inactive) | > 100 µM (inactive) | > 100 µM (inactive) | > 100 µM (inactive) | > 100 µM (inactive) | > 100 µM (inactive) | > 100 µM (inactive) | > 100 µM (inactive) | > 100 µM (inactive) | > 100 µM (inactive) | > 100 µM (inactive) | > 100 µM | > 100 µM (inactive) | > 100 µM (inactive) | > 100 µM (inactive) | > 100 µM (inactive) | –
Cc1ccc(NC(=O)/C(CC(=O)c2c[n+]([O-])c3ccccc3[n+]2[O-])=N\NC(=O)C[n+]2ccccc2)cc1 | > 100 µM (inactive) | > 100 µM (inactive) | 48.6 µM (inactive) | > 100 µM (inactive) | > 100 µM (inactive) | > 100 µM (inactive) | > 100 µM (inactive) | > 100 µM (inactive) | > 100 µM (inactive) | > 100 µM (inactive) | > 100 µM (inactive) | – | > 100 µM (inactive) | > 100 µM | > 100 µM (inactive) | > 100 µM (inactive) | > 100 µM (inactive) | > 100 µM (inactive) | > 100 µM (inactive)
O=C(O)CCC(NC(=O)c1ccc(Nc2cnc3cc(C(F)(F)F)ccc3n2)cc1)C(=O)O (centres undefined) | > 100 µM (inactive) | > 100 µM (inactive) | > 100 µM (inactive) | > 100 µM (inactive) | > 100 µM (inactive) | > 100 µM (inactive) | > 100 µM (inactive) | > 100 µM (inactive) | > 100 µM (inactive) | > 100 µM (inactive) | > 100 µM (inactive) | > 100 µM (inactive) | > 100 µM (inactive) | > 100 µM | – | > 100 µM (inactive) | > 100 µM (inactive) | > 100 µM (inactive) | –
O=c1ccc2ccccc2o1 [COUMARIN] | > 100 µM (inactive) | > 100 µM (inactive) | > 100 µM (inactive) | > 100 µM (inactive) | > 100 µM (inactive) | > 100 µM (inactive) | > 100 µM (inactive) | > 100 µM (inactive) | > 100 µM (inactive) | > 100 µM (inactive) | > 100 µM (inactive) | > 100 µM (inactive) | > 100 µM (inactive) | > 100 µM | > 100 µM (inactive) | > 100 µM (inactive) | > 100 µM (inactive) | > 100 µM (inactive) | –
CC12CCC3C(CCC4(O)C=CCCC34C=O)C1(O)CC(O)C2c1ccc(=O)oc1 (centres undefined) | 0.0685 µM (active) | 0.0573 µM (active) | 0.0741 µM (active) | 0.0741 µM (active) | 0.076 µM (active) | 0.117 µM (active) | < 0.05 µM (active) | 0.117 µM (active) | 0.111 µM (active) | 0.0526 µM (active) | 0.0527 µM (active) | 0.0512 µM (active) | 0.0679 µM (active) | 0.0658 µM | – | 0.0681 µM (active) | 0.148 µM (active) | 0.0668 µM (active) | 0.0578 µM (active)
CC1CCCP(=O)(c2ccccc2)CC1 (centres undefined) | > 100 µM (inactive) | – | > 100 µM (inactive) | > 100 µM (inactive) | > 100 µM (inactive) | > 100 µM (inactive) | > 100 µM (inactive) | > 100 µM (inactive) | > 100 µM (inactive) | > 100 µM (inactive) | > 100 µM (inactive) | > 100 µM (inactive) | 0.202 µM (active) | > 100 µM | > 100 µM (inactive) | > 100 µM (inactive) | – | > 100 µM (inactive) | > 100 µM (inactive)
